Reference: PubChem BioAssay (NCI)
Values joined by “and” are separate entries in the source; they are usually repeats but may differ in a detail not shown here. Equal values may be shown once.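 Five compound concentrations were applied to cells in 96-well plates for 48 hours; endpoints were derived by simple linear interpolation of the resulting dose-response curve. At the GI50, growth is halved. TGI marks complete inhibition of growth.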

Key:
Experiment in all cases: NCI anticancer screen, dose series, 48 h
[1] = tested on: T-47D breast
[2] = tested on: SK-MEL-28 melanoma
[3] = tested on: A498 renal
[4] = tested on: MALME-3M melanoma
[5] = tested on: NCI-H460 lung
[6] = tested on: OVCAR-4 ovarian
[7] = tested on: LOX IMVI melanoma
[8] = tested on: SNB-19 CNS
[9] = tested on: HCT-15 colon
[10] = tested on: EKVX NSCLC
[11] = tested on: NCI-H522 lung
[12] = tested on: HL-60(TB) leukemia
[13] = tested on: MCF7 breast

COC(=O)C1(C(=O)OC)CC2=C(S(=O)(=O)c3ccccc3)C[C@H](S(=O)(=O)c3ccccc3)[C@H]2C1
TGI [1]: 92.6 µM
TGI [2]: > 100 µM
TGI [3]: > 100 µM
TGI [4]: > 100 µM
TGI [5]: > 100 µM
TGI [6]: > 100 µM
TGI [7]: > 100 µM
TGI [8]: > 100 µM
TGI [9]: > 100 µM
TGI [10]: > 100 µM
TGI [11]: 92.7 µM

CC(=O)OCC1OC(OC(C)(C)CC/C=C(\C)[C@@H]2C/C=C(\C)CC/C=C(\C)CC2)C(O)C(O)C1OC(C)=O (some centres undefined)
TGI [12]: 67.3 µM
GI50 [2]: > 100 µM and 21.7 µM
TGI [2]: > 100 µM and 40.6 µM
GI50 [13]: 52 µM and 23.9 µM
TGI [13]: > 100 µM and 64.8 µM
GI50 [3]: > 100 µM and 24.4 µM
TGI [3]: > 100 µM and 44.8 µM
TGI [4]: 56.4 µM and 34.5 µM
TGI [5]: 35.3 µM and 61.8 µM
GI50 [6]: > 58.7 µM and 16.2 µM
TGI [6]: > 100 µM and 32.1 µM
TGI [7]: 33.5 µM and 54.1 µM
GI50 [8]: 61.5 µM and 12.5 µM
TGI [8]: > 100 µM and 25 µM
GI50 [9]: 49.4 µM and 14.2 µM
TGI [9]: > 100 µM and 29.2 µM
GI50 [10]: 43.6 µM and 19 µM
TGI [10]: > 100 µM and 37.3 µM
TGI [11]: 28.8 µM and 37.4 µM

CCN1CC2=C(NC(=S)NC2c2ccc(Cl)cc2)/C(=C/c2ccc(Cl)cc2)C1 (centres undefined)
TGI [12]: > 100 µM
TGI [2]: > 100 µM
TGI [13]: > 100 µM
TGI [3]: 62.1 µM
TGI [4]: > 100 µM
TGI [5]: 45.8 µM
TGI [6]: > 100 µM
TGI [7]: > 100 µM
TGI [8]: > 100 µM
TGI [9]: > 100 µM
TGI [10]: > 100 µM
TGI [11]: > 100 µM

COc1ccc(C2Oc3c(cc(O)c(OC)c3C)[C@@H]2C)cc1OC (some centres undefined)
TGI [12]: > 100 µM
TGI [2]: > 100 µM
TGI [3]: > 100 µM
TGI [4]: > 100 µM
TGI [5]: > 100 µM
TGI [6]: > 100 µM
TGI [7]: > 100 µM
TGI [8]: > 100 µM
TGI [10]: > 100 µM
TGI [11]: > 100 µM

COc1ccc(C(C#N)NNC(=O)c2ccccc2O)cc1OC (centres undefined)
TGI [12]: 30.2 µM
TGI [2]: > 100 µM
TGI [4]: > 100 µM
TGI [5]: > 100 µM
TGI [6]: > 100 µM
TGI [7]: 59.3 µM
TGI [9]: > 100 µM
TGI [11]: 30.1 µM

O=C(CN1c2ccccc2Sc2ccccc21)N1CCNCC1
TGI [12]: > 100 µM
TGI [1]: > 100 µM
TGI [2]: > 100 µM
TGI [13]: > 100 µM
TGI [3]: > 100 µM
TGI [4]: > 100 µM
TGI [5]: > 100 µM
TGI [6]: > 100 µM
TGI [7]: > 100 µM
TGI [8]: > 100 µM
TGI [9]: > 100 µM
TGI [10]: > 100 µM

COC(=O)C(CCC#N)(CCC#N)C(=O)OC
TGI [12]: > 100 µM
TGI [2]: > 100 µM
TGI [4]: > 100 µM
TGI [5]: > 100 µM
TGI [7]: > 100 µM
TGI [8]: > 100 µM
TGI [9]: > 100 µM
TGI [10]: > 100 µM
TGI [11]: > 100 µM

Cc1c(-c2nc3ccccc3[nH]2)c(=O)n(-c2ccccc2)n1C
TGI [12]: > 100 µM
TGI [1]: > 100 µM
TGI [2]: > 100 µM
TGI [13]: > 100 µM
TGI [4]: > 100 µM
TGI [5]: > 100 µM
TGI [6]: > 100 µM
TGI [7]: > 100 µM
TGI [8]: > 100 µM
TGI [9]: > 100 µM
TGI [10]: > 100 µM
TGI [11]: > 100 µM

Cc1nc(-c2ccc([N+](=O)[O-])cc2)cn2c1nc1ccccc12
TGI [12]: > 100 µM
TGI [1]: > 100 µM
TGI [2]: > 100 µM
TGI [13]: > 100 µM
TGI [3]: > 100 µM
TGI [4]: > 100 µM
TGI [5]: > 100 µM
TGI [6]: > 100 µM
TGI [7]: > 100 µM
TGI [8]: > 100 µM
TGI [9]: > 100 µM
TGI [10]: > 100 µM

CC(O[Si](c1ccccc1)(c1ccccc1)C(C)(C)C)[C@H](NC(=O)OC(C)(C)C)C(=O)O[Si](c1ccccc1)(c1ccccc1)C(C)(C)C (some centres undefined)
TGI [12]: 31 µM
TGI [1]: 25.7 µM
TGI [2]: 28.5 µM
TGI [13]: 48.6 µM
TGI [4]: 34.3 µM
TGI [5]: 25.5 µM
TGI [6]: 16.5 µM
TGI [8]: 29.8 µM
TGI [9]: 18.8 µM
TGI [10]: 26.4 µM

O=C(CC(=O)n1nc(-c2ccccc2)c(N=Nc2ccccc2C(=O)O)c1-c1ccccc1)Nc1ccc(Cl)cc1
TGI [12]: 40.9 µM
TGI [1]: > 100 µM
TGI [2]: > 100 µM
TGI [13]: > 100 µM
TGI [4]: > 100 µM
TGI [5]: > 100 µM
TGI [8]: 81.8 µM
TGI [9]: > 100 µM
TGI [10]: > 100 µM

Cc1nc2c(nc1Cl)nc(Oc1ccc(Cl)cc1)c1ccccc12
TGI [2]: > 100 µM
TGI [4]: > 100 µM
TGI [5]: > 100 µM
TGI [6]: > 100 µM
TGI [7]: > 100 µM
TGI [8]: > 100 µM
TGI [9]: > 100 µM
TGI [10]: > 100 µM
TGI [11]: > 100 µM

S=C(N/N=C\C=N/NC(=S)N1CCCCC1)N1CCCCC1
TGI [2]: > 100 µM
TGI [13]: > 100 µM
TGI [3]: > 100 µM
TGI [4]: > 35 µM
TGI [5]: > 41.5 µM
TGI [7]: > 100 µM
TGI [8]: > 100 µM
TGI [9]: > 100 µM
TGI [10]: > 100 µM
TGI [11]: > 100 µM

OCC1CCCCCCCCCCC12SCCCS2 (centres undefined)
TGI [12]: > 100 µM
TGI [1]: > 100 µM
TGI [2]: > 100 µM
TGI [13]: > 100 µM
TGI [4]: > 100 µM
TGI [5]: > 100 µM
TGI [6]: > 100 µM
TGI [7]: > 100 µM
TGI [8]: > 100 µM
TGI [9]: > 100 µM
TGI [10]: > 100 µM
TGI [11]: > 100 µM

O=c1[nH]n2c(=O)cc[nH]c2c1-c1nnns1
TGI [12]: > 100 µM
TGI [2]: > 100 µM
TGI [3]: > 100 µM
TGI [4]: > 100 µM
TGI [5]: > 100 µM
TGI [6]: > 100 µM
TGI [7]: > 100 µM
TGI [8]: > 100 µM
TGI [9]: > 100 µM
TGI [10]: > 100 µM
TGI [11]: > 100 µM

COc1cccc(-c2cc(=O)c3ccccc3o2)c1N
TGI [12]: > 100 µM
TGI [1]: > 57.3 µM
TGI [2]: > 100 µM
TGI [13]: > 100 µM
TGI [4]: > 56 µM
TGI [5]: > 100 µM
TGI [6]: > 100 µM
TGI [7]: > 100 µM
TGI [8]: > 100 µM
TGI [9]: > 100 µM
TGI [10]: > 100 µM
TGI [11]: > 100 µM

NC(N)=NS(=O)(=O)c1ccc(NCc2c3ccccc3[n+]([O-])c3ccccc23)cc1
TGI [12]: 44.4 µM
TGI [2]: 62.5 µM
TGI [3]: > 100 µM
TGI [4]: 51.5 µM
TGI [5]: > 100 µM
TGI [6]: 85.3 µM
TGI [7]: 90.9 µM
TGI [8]: > 100 µM
TGI [9]: 74.4 µM
TGI [10]: > 100 µM
TGI [11]: > 100 µM

O=C(/C=C/c1ccc(O)c([N+](=O)[O-])c1)CC(=O)/C=C/c1ccc(O)c([N+](=O)[O-])c1
TGI [12]: 44.6 µM
TGI [2]: > 100 µM
TGI [13]: > 100 µM
TGI [5]: > 100 µM
TGI [6]: > 100 µM
TGI [7]: 27.5 µM
TGI [8]: > 100 µM
TGI [9]: > 100 µM
TGI [10]: > 100 µM
TGI [11]: > 100 µM
